{"source": "patent US9290501B2", "about": "“Methods, assays and compounds for treating bacterial infections by inhibiting methylthioinosine phosphorylase” (Albert Einstein College of Medicine, Inc., priority 2010, dated 2016)", "key": {"PaMTIP [1]": {"target": "T1, PaMTIP (Pseudomonas aeruginosa (strain ATCC 15692 / DSM 22644 / CIP 104116 / JCM 14847 / LMG 12228 / 1C / PRS 101 / PAO1), UniProt Q9HZK1)", "assay": "biochemical", "protocol": "Assays for slow-onset inhibitors were carried out by adding 1 nM PaMTIP into reaction mixtures at 25° C. containing 100 mM Hepes, pH 7.4, 100 mM phosphate, pH 7.4, 2 mM MTI, 5 mM DTT, 0.5 unit of xanthine oxidase and variable inhibitor concentration. Inhibitors were present at >10 times the enzyme concentration, required to simplify data analysis (24). Assays for MTA inhibition used 200 μM MTI. Controls having no enzyme and no inhibitor were included in all of the inhibition assays. Inhibition constants were obtained by fitting initial rates with variable inhibitor concentrations to equation (1) using GraFit 5 (Erithacus Software):\n[formula] where vi is the initial rate in the presence of inhibitor, vo is the initial rate in the absence of inhibitor, Km is the Michaelis constant for MTI, [S] and [I] are MTI and inhibitor concentrations, respectively, and Ki is the inhibition constant. Slow-onset inhibitors display a second phase of tighter binding after reaching a thermodynamic equilibrium with the enzyme. The equilibrium constant for the second binding phase is indicated as Ki*. This constant was obtained by fitting initial final rates and inhibitor concentrations to equation (1) using GraFit 5 (22)."}, "PaMTIP [2]": {"target": "T1, PaMTIP", "format": "biochemical", "conditions": "for fold decreases of Kcat/Km in comparison with those of MTI / kcat/Km: PaMTIP; for Km / kcat: PaMTIP phosphorolysis, 100 mM phosphate, pH 7.4, 25° C.", "protocol": "Product formation was monitored by conversion of hypoxanthine to uric acid by xanthine oxidase (22). The extinction coefficient of this assay was 12.9 mM^−1cm^−1 at 293 nm. Enzyme activity with adenosine or MTA as substrates was determined by conversion of adenine to 2,8-dihydroxyadenine using the same coupling enzyme (23). Its extinction coefficient at 293 nm was 15.2 mM^−1cm^−1. Reactions were carried out at 25° C. in 1 cm cuvettes, 1 mL volumes of 100 mM Hepes, pH 7.4, 100 mM phosphate, pH 7.4, variable concentrations of nucleoside substrate, 0.5 unit of xanthine oxidase, 5 mM DTT, and appropriate amounts of purified MTIP. Reactions were initiated by addition of enzyme and the initial rates were monitored with a CARY 300 UV-Visable spectrophotometer. Control rates (no PaMTIP) were subtracted from initial rates. Km and kcat values for PaMTIP were obtained by fitting initial rates to the Michaelis-Menten equation using GraFit 5 (Erithacus Software)."}, "PfADA": {"target": "PfADA (Plasmodium falciparum (isolate 3D7), UniProt Q8IJA9)", "conditions": "PfADA deamination; cited from earlier work"}, "PfPNP [3]": {"target": "T2, PfPNP (Plasmodium falciparum (isolate 3D7), UniProt Q8I3X4)", "conditions": "read-out: dissociation constants; cited from earlier work"}, "PfPNP [4]": {"target": "T2, PfPNP", "conditions": "cited from earlier work"}, "[5]": {"conditions": "initial binding phase, 2 mM MTI, 25° C., pH 7.4, values ± S.E., read-out: Ki"}, "[6]": {"conditions": "second tighter binding phase of slow-onset inhibition, values ± S.E., read-out: Ki*"}}, "note": "Values joined by “and” are separate entries in the source; they are usually repeats but may differ in a detail not shown here. Equal entries are not always repeated. Where two headings read alike, the source gives them in different places."}
{"smiles": "CSCC(CO)(CO)NCc1c[nH]c2c(=O)[nH]cnc12", "note": "[MT-TrisMe-ImmH, 7-((1,3-dihydroxy-2-(methylthiomethyl)propan-2-ylamino)methyl)-3H-pyrrolo[3,2-d]pyrimidin-4(5H)-one]", "values": [{"measurement": "Ki", "setting": "PaMTIP [1]; Ki", "value": 19, "unit": "nM"}]}
{"smiles": "CCCSC[C@H]1CN(Cc2c[nH]c3c(=O)[nH]cnc23)C[C@@H]1O", "note": "[PrT-DADMe-ImmH]", "values": [{"measurement": "fold tighter binding / enhanced potency relative to MT-DADMe-ImmH", "setting": "PaMTIP [1]", "value": 4, "unit": "fold"}]}
{"smiles": "CSC[C@@]1(O)CN(Cc2c[nH]c3c(=O)[nH]cnc23)C[C@@H]1O", "note": "[4′-HO-MT-DADMe-ImmH, (3S,4R)-1-[(9-deazahypoxanthin-9-yl)methyl]-3,4-dihydroxy-4-methylthiomethylpyrrolidine]", "values": [{"measurement": "inhibitor potency in words", "setting": "PaMTIP [1]", "value": "nanomolar inhibitor"}]}
{"smiles": "Nc1ncnc2c1ncn2[C@@H]1O[C@H](CO)[C@@H](O)[C@H]1O", "note": "[adenosine]", "values": [{"measurement": "fold decreases of Kcat/Km in comparison with those of MTI", "setting": "PaMTIP [2]", "value": 750, "unit": "fold"}, {"measurement": "kcat/Km", "setting": "PaMTIP [2]", "value": 2400, "unit": "M⁻¹ s⁻¹"}, {"measurement": "Km", "setting": "PaMTIP [2]", "value": "23 ± 1", "unit": "µM"}, {"measurement": "kcat", "setting": "PaMTIP [2]", "value": "0.0549 s⁻¹ and 0.0549 ± 0.0005 s⁻¹"}, {"measurement": "kcat/Km", "setting": "PaMTIP [2]; Table 2", "value": "2.4 ± 0.1 × 10^3 M^−1s^−1"}, {"measurement": "kcat/Km", "setting": "PfADA", "value": 62000, "unit": "M⁻¹ s⁻¹"}]}
{"smiles": "CSC[C@H]1CN(Cc2c[nH]c3c(=O)[nH]cnc23)C[C@@H]1O", "note": "[MT-DADMe-ImmH, (3R,4S)-1-[(9-deazahypoxanthin-9-yl)methyl]-3-hydroxy-4-(methylthiomethyl)pyrrolidine]", "values": [{"measurement": "Ki", "setting": "PaMTIP [1]; Ki*, second tighter binding phase of slow-onset inhibition, values ± S.E.", "value": "0.34 ± 0.02", "unit": "nM"}, {"measurement": "Ki", "setting": "PaMTIP [1]; [5]", "value": "0.8 ± 0.1", "unit": "nM"}, {"measurement": "Ki", "setting": "PfPNP [3]", "value": 0.9, "unit": "nM"}]}
{"smiles": "CSCC(CO)NCc1c[nH]c2c(=O)[nH]cnc12", "note": "(stereo not shown) [MT-SerMe-ImmH]", "values": [{"measurement": "Ki", "setting": "PaMTIP [1]; [6]", "value": 0.096, "unit": "nM"}]}
{"smiles": "OC[C@H]1O[C@@H](n2cnc3c(O)ncnc32)[C@H](O)[C@@H]1O", "note": "[inosine]", "values": [{"measurement": "fold decreases of Kcat/Km in comparison with those of MTI", "setting": "PaMTIP [2]", "value": 300, "unit": "fold"}, {"measurement": "kcat/Km", "setting": "PaMTIP [2]", "value": 6300, "unit": "M⁻¹ s⁻¹"}, {"measurement": "Km", "setting": "PaMTIP [2]", "value": "90 ± 20", "unit": "µM"}, {"measurement": "kcat", "setting": "PaMTIP [2]", "value": "0.57 s⁻¹ and 0.57 ± 0.04 s⁻¹"}, {"measurement": "kcat/Km", "setting": "PaMTIP [2]; Table 2", "value": "6 ± 1 × 10^3 M^−1s^−1"}, {"measurement": "kcat/Km", "setting": "PfPNP [4]", "value": 360000, "unit": "M⁻¹ s⁻¹"}]}
{"smiles": "O=c1[nH]cnc2c([C@@H]3N[C@H](CSc4ccccc4)[C@@H](O)[C@H]3O)c[nH]c12", "note": "[PhT-ImmH]", "values": [{"measurement": "mode of inhibition", "setting": "PaMTIP [1]", "value": "slow-onset, tight-binding inhibition"}, {"measurement": "Ki", "setting": "PaMTIP [1]; [5]", "value": "0.66 ± 0.09", "unit": "nM"}, {"measurement": "Ki", "setting": "PaMTIP [1]; [6]", "value": 0.035, "unit": "nM"}]}
